Measured values reported in ChEMBL document CHEMBL5212743, “Selectivity Literature for EUbOPEN Chemogenomics Library wave 3” (2023).

Legend:
[1] = target: 5'-AMP-activated protein kinase catalytic subunit alpha-1 (Homo sapiens, UniProt Q13131); assay: Selectivity interaction (Upstate Kinase Profiler service (Millipore)) EUB0000056c PRKAA1
[2] = target: Calcium/calmodulin-dependent protein kinase type II subunit beta (Homo sapiens, UniProt Q13554); assay: Selectivity interaction (Upstate Kinase Profiler service (Millipore)) EUB0000056c CAMK2B
[3] = target: T1, Mitogen-activated protein kinase 15 (Homo sapiens) (UniProt Q8TD08); settings: at 10 µM
T1 sequence (whole entry): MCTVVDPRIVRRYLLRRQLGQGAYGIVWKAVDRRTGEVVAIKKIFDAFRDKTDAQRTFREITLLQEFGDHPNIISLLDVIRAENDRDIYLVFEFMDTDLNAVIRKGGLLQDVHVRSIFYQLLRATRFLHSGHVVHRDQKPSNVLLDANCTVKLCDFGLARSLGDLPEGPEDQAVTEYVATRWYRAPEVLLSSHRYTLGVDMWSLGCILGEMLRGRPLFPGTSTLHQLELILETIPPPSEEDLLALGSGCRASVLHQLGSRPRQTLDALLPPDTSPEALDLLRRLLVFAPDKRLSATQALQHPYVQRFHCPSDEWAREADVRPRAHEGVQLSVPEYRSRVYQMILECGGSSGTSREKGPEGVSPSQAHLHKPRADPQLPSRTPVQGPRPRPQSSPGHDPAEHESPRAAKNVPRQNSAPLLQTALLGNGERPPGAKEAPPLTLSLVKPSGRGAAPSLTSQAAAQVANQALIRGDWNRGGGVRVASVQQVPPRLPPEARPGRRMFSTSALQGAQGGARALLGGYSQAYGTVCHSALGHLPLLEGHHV

Ephrin type-B receptor 2 = Ephrin type-B receptor 2 (Homo sapiens, UniProt P29323)
[4] = target: Calcium/calmodulin-dependent protein kinase type IV (Homo sapiens) (UniProt Q16566); settings: at 1 µM
Insulin receptor = Insulin receptor (Homo sapiens, UniProt P06213)
[5] = target: T2, Serine/threonine-protein kinase Sgk1 (Homo sapiens) (UniProt O00141); settings: at 1 µM
T2 sequence (whole entry): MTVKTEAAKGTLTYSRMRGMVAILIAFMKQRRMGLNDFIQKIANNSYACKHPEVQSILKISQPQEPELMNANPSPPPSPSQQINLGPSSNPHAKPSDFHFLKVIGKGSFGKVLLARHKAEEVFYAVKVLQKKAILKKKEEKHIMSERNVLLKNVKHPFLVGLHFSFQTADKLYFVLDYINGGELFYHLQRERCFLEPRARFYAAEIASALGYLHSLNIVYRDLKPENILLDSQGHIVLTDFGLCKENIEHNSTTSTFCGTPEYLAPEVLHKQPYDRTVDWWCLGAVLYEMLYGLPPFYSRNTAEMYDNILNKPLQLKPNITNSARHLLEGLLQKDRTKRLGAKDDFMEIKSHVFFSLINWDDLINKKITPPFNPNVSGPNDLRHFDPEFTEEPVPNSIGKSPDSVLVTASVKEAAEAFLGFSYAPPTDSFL

[6] = tested on: T3, Receptor-type tyrosine-protein kinase FLT3 (Homo sapiens), P36888 [D835Y]; assay: Selectivity interaction (KinomeScan (DiscoverX)) EUB0000747a FLT3; settings: at 1 µM
T3 sequence (whole entry): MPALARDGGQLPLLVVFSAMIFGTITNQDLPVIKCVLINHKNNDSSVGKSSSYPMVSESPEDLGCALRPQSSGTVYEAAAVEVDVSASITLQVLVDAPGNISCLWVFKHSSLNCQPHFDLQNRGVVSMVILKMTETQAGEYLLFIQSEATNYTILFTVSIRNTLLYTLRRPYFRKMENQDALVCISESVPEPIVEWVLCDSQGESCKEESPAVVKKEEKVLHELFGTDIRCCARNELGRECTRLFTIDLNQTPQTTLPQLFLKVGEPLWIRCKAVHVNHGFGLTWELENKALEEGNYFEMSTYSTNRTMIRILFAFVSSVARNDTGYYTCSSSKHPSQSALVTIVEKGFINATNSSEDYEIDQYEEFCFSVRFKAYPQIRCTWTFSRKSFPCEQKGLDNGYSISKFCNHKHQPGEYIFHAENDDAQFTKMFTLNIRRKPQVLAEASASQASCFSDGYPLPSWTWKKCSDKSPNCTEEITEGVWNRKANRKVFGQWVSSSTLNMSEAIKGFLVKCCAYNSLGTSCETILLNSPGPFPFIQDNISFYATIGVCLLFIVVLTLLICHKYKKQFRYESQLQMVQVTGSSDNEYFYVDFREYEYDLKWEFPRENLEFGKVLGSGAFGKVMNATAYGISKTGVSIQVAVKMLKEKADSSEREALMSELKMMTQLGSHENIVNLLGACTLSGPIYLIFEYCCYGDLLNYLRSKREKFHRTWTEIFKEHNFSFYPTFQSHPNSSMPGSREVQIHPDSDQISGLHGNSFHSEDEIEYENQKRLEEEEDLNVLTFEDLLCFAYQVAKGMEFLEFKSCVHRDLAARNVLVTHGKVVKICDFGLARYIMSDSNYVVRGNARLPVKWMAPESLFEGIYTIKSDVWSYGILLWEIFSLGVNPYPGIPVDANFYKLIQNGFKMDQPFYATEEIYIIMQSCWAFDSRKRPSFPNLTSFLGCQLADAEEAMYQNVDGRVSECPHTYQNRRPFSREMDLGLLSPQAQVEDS

[7] = target: Microtubule-associated serine/threonine-protein kinase 1 (Homo sapiens) (UniProt Q9Y2H9); assay: Selectivity interaction (KinomeScan (DiscoverX)) EUB0000747a MAST1; settings: at 1 µM
[8] = target: Death-associated protein kinase 2 (Homo sapiens) (UniProt Q9UIK4); assay: Selectivity interaction (KinomeScan (DiscoverX)) EUB0000747a DAPK2; settings: at 1 µM
[9] = target: 5-hydroxytryptamine receptor 7 (Homo sapiens, UniProt P34969); assay: Selectivity interaction (GPCR panel (PDSP screen)) EUB0000747a HTR7
5-hydroxytryptamine receptor 7, sequence (P34969 whole entry): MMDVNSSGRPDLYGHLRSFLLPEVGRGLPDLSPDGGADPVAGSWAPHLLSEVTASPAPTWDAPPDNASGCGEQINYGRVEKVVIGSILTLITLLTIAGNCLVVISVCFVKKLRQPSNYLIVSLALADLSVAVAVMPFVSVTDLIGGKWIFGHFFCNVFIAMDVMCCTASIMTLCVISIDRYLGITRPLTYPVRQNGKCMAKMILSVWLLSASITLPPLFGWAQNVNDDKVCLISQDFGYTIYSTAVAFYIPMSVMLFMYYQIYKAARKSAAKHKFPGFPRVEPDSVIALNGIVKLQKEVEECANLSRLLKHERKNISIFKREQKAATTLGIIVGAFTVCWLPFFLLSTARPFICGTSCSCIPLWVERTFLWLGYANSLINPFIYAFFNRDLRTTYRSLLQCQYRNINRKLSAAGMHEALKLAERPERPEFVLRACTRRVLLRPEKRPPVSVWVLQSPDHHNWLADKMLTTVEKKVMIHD

Death-associated protein kinase 2 (Homo sapiens), sequence (Q9UIK4 whole entry, looked up): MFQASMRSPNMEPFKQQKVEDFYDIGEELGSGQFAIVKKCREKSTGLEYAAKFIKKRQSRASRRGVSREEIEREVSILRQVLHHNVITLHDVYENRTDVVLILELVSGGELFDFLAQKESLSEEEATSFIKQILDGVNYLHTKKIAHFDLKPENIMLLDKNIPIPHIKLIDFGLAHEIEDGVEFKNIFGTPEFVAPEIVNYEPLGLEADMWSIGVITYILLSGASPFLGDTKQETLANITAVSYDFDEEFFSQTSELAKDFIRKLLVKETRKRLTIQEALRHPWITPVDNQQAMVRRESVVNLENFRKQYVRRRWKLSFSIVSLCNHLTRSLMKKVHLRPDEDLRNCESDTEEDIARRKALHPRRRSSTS
Calcium/calmodulin-dependent protein kinase type II subunit beta, sequence (Q13554 whole entry): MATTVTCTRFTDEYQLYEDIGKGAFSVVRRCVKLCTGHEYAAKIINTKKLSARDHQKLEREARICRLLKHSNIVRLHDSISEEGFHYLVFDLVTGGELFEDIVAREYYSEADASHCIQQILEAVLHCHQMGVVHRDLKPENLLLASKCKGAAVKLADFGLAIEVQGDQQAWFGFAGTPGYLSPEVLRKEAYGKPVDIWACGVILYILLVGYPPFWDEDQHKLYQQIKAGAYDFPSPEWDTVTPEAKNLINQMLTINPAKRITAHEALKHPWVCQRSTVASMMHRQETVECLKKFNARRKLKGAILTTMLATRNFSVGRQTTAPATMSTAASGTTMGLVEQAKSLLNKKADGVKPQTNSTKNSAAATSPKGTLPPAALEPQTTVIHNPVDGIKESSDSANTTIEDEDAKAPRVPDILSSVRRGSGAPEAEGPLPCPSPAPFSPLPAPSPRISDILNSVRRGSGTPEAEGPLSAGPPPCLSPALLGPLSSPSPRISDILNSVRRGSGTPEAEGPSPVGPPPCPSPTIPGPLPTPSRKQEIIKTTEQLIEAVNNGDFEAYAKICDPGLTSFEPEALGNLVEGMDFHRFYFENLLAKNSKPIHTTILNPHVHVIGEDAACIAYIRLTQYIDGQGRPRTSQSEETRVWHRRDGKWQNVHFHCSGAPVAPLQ
5'-AMP-activated protein kinase catalytic subunit alpha-1, sequence (Q13131 whole entry): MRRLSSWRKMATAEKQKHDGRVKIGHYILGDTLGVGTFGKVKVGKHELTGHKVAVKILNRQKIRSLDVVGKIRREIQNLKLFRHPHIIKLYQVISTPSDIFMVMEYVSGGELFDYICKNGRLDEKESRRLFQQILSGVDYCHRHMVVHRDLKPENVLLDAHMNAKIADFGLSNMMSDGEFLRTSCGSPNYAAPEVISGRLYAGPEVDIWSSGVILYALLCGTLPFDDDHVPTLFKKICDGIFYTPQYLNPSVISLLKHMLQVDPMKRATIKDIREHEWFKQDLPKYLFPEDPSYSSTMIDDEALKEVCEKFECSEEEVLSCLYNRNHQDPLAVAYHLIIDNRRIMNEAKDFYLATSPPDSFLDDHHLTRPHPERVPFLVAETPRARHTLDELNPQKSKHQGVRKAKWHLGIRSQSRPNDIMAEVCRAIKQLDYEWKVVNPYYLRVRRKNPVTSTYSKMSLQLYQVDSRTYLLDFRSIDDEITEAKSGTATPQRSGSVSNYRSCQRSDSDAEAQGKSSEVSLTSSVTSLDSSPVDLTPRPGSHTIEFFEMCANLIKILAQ
Insulin receptor, sequence (P06213 28-758 limits assumed): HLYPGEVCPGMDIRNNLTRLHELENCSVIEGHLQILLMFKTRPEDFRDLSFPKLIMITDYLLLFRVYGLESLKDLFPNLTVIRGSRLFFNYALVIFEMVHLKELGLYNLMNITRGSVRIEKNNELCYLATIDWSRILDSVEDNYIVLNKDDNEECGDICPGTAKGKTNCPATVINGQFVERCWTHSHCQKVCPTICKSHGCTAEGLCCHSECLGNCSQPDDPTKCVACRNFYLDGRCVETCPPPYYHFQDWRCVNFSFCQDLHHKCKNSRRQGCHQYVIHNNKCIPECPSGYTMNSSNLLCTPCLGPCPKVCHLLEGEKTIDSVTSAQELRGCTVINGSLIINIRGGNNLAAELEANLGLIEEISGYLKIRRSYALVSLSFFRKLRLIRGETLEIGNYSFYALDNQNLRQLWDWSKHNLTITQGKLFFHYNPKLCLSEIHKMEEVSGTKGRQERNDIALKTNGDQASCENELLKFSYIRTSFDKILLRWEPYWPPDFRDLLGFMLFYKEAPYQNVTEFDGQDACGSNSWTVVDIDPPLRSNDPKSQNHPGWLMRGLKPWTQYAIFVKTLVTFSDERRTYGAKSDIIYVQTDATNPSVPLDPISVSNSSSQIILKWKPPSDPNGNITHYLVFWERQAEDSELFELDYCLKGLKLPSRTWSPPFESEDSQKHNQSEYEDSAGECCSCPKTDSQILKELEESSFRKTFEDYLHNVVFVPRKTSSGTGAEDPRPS
Insulin receptor, sequence (P06213 763-1382 limits assumed): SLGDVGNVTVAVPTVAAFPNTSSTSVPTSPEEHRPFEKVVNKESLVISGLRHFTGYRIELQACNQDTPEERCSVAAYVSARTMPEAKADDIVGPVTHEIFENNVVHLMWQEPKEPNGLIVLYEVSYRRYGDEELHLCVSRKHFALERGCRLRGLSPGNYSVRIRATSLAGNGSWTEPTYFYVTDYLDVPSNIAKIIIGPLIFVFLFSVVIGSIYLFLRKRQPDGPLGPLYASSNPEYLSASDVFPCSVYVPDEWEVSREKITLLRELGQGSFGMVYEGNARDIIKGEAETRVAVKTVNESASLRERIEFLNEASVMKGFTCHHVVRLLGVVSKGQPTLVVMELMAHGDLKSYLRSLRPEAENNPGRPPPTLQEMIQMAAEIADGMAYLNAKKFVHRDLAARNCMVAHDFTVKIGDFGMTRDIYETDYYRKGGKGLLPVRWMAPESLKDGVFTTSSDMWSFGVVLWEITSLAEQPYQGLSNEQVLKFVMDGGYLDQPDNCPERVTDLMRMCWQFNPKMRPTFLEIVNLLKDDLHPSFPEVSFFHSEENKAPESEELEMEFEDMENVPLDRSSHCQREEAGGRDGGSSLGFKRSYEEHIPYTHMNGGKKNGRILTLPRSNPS
Ephrin type-B receptor 2, sequence (P29323 whole entry): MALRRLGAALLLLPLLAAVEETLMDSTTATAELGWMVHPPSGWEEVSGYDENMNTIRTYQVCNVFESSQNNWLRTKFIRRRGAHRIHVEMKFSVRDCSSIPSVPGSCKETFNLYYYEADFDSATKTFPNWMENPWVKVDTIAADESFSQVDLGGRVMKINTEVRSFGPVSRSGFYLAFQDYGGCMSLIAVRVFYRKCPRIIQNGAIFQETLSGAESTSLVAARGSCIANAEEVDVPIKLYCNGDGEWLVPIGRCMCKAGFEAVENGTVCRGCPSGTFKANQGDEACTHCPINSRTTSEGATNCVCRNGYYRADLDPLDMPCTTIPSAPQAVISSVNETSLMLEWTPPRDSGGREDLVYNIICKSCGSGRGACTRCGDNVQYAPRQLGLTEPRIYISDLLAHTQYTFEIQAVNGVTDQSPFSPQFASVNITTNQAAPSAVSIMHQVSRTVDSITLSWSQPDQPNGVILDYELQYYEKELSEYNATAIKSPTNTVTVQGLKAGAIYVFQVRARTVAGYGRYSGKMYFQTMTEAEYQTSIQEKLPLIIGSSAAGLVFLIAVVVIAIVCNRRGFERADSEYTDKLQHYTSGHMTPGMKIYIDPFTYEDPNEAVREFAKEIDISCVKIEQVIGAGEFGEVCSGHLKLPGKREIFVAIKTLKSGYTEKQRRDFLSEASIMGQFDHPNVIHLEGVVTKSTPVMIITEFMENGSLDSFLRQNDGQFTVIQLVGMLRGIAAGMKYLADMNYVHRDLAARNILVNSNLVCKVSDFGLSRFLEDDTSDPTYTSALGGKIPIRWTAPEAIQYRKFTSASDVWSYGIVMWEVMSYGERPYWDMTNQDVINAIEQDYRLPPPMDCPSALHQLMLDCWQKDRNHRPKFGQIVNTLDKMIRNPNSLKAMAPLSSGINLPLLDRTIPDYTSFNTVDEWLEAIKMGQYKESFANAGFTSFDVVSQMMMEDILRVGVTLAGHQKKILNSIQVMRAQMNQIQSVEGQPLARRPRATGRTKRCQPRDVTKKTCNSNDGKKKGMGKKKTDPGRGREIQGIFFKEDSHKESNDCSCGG
Calcium/calmodulin-dependent protein kinase type IV (Homo sapiens), sequence (Q16566 whole entry): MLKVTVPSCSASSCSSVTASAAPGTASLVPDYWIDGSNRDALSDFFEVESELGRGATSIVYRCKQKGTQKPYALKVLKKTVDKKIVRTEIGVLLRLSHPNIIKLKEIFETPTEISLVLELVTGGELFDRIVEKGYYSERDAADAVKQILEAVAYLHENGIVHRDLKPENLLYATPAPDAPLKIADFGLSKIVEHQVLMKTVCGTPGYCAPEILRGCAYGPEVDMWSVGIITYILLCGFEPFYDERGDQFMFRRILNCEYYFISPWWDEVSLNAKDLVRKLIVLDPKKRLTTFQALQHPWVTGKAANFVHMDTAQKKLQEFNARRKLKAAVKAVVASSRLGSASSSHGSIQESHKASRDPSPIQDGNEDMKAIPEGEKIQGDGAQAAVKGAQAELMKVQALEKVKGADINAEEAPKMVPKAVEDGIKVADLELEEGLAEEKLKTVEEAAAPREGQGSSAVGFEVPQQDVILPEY

## Cc1ccc(-c2ccc3c(ccc4sc5c(c43)NC[C@@H](C)NC5=O)n2)cn1
[1]
  IC50: 117 nM
[2]
  IC50: 70 nM

## OCCn1cc(-c2cnc3nnn(Cc4ccc5ncccc5c4)c3n2)cn1 [PF-04217903]
[3]
  % of inhibition: 0.4%
Ephrin type-B receptor 2
  IC50: > 10000 nM
[4]
  % of inhibition: 22.5%
Insulin receptor
  IC50: > 10000 nM
[5]
  % of inhibition: 0.3%

## CO[C@@H](C)c1c(Nc2ccc([C@@H](N(C)C(=O)C3CCS(=O)(=O)CC3)C(F)(F)F)cc2)cnc2cc(Cl)nn12 [NVS-MALT1-C]
[6]
  % of control: 42%
[7]
  % of control: 29%
[8]
  % of control: 41%
[9]
  Ki: > 10000 nM
